Assays:
[1] = test system: RNA transcripts in PNN cell line; test: ΔPSI (iExon production / exon inclusion), FET and Fold Decrease of RNA transcripts in PNN cell line treated at 3 μM; type: cell-based; settings: for FD PNN: Fold Decrease
Procedure: (§1) Results: The statistically significant value for the likelihood of iExon production (ΔPSI) according to the Fisher's Exact Test (FET) for PNN and HDF cell lines treated with Compound 774 at 3 μM and Fold Decrease (FD) for certain genes tested, where NR represents “Not Reported,” is shown in Table 10.
(§2) The ΔPSI for inclusion of an iExon and resulting modulated expression of RNA transcripts identified is represented by stars, where one star (*) represents ≤25% change in expression, where two stars (**) represent change in expression in a range from <26% to ≤50% change, where three stars (***) represent change in expression in a range from <51% to ≤75% change, and, where four stars (****) represent change in expression in a range from <75% to ≤100% change.
(§3) Results: The statistically significant value for the likelihood of exon inclusion (ΔPSI) according to the Fisher's Exact Test (FET) for PNN and HDF cell lines treated with Compound 774 at 3 μM and Fold Decrease (FD) for certain genes tested, where NR represents “Not Reported,” is shown in Table 10a.
(§4) The ΔPSI for inclusion of an exon and resulting modulated expression of RNA transcripts identified is represented by stars, where one star (*) represents ≤25% change in expression, where two stars (**) represent change in expression in a range from <26% to ≤50% change, where three stars (***) represent change in expression in a range from <51% to ≤75% change, and, where four stars (****) represent change in expression in a range from <75% to ≤100% change.

[2] = test system: RNA transcripts in HDF cell line; test: ΔPSI (iExon production / exon inclusion), FET and Fold Decrease of RNA transcripts in HDF cell line treated at 3 μM; type: cell-based; settings: for FD HDF: Fold Decrease
Procedure: as §1, §2, §3, §4

[3] = gene FAM198B, exon e3, PNN cells, 3 μM
[4] = gene PRUNE2, exon e18, PNN cells, 3 μM
[5] = gene FAM198B, exon e3, HDF cells, 3 μM
[6] = gene PRUNE2, exon e18, HDF cells, 3 μM

CCc1nc(C)cn2nc(-c3cc(=O)n4cc(C5CCN(C)CC5)cc(C)c4n3)cc12 [Compound 774]
FD PNN [1, 3]: −1.81
FD PNN [1, 4]: −0.52
ΔPSI (PNN) ([1]; gene APLP2, exon e7, PNN cells, 3 μM): ** (two stars (**) represent change in expression in a range from <26% to ≤50% change)
ΔPSI (PNN) ([1]; gene AXIN1, exon e9, PNN cells, 3 μM): ** (two stars (**) represent change in expression in a range from <26% to ≤50% change)
ΔPSI (PNN) ([1]; gene CECR7, exon e5, PNN cells, 3 μM): * (one star (*) represents ≤25% change in expression)
ΔPSI (PNN) ([1]; gene DAGLB, exon e4, PNN cells, 3 μM): * (one star (*) represents ≤25% change in expression)
ΔPSI (PNN) ([1]; gene DLGAP4, exon e8, PNN cells, 3 μM): * (one star (*) represents ≤25% change in expression)
ΔPSI (PNN) ([1]; gene ERCC1, exon e8, PNN cells, 3 μM): * (one star (*) represents ≤25% change in expression)
ΔPSI (PNN) ([1]; gene ERGIC3, exon e8, PNN cells, 3 μM): * (one star (*) represents ≤25% change in expression)
ΔPSI (PNN) [1, 3]: * (one star (*) represents ≤25% change in expression)
ΔPSI (PNN) ([1]; gene GGCT, exon e2, PNN cells, 3 μM): ** (two stars (**) represent change in expression in a range from <26% to ≤50% change)
ΔPSI (PNN) ([1]; gene HAT1, exon e3, PNN cells, 3 μM): * (one star (*) represents ≤25% change in expression)
ΔPSI (PNN) ([1]; gene HPS1, exon e5, PNN cells, 3 μM): * (one star (*) represents ≤25% change in expression)
ΔPSI (PNN) ([1]; gene INPP5K, exon e2, PNN cells, 3 μM): * (one star (*) represents ≤25% change in expression)
ΔPSI (PNN) ([1]; gene MADD, exon e21, PNN cells, 3 μM): * (one star (*) represents ≤25% change in expression)
ΔPSI (PNN) ([1]; gene PPHLN1, exon e3, PNN cells, 3 μM): *** (three stars (***) represent change in expression in a range from <51% to ≤75% change)
ΔPSI (PNN) [1, 4]: * (one star (*) represents ≤25% change in expression)
ΔPSI (PNN) ([1]; gene RAP1A, exon e2, PNN cells, 3 μM): * (one star (*) represents ≤25% change in expression)
ΔPSI (PNN) ([1]; gene RNFT1, exon e3, PNN cells, 3 μM): * (one star (*) represents ≤25% change in expression)
ΔPSI (PNN) ([1]; gene RPS6KB2, exon e2, PNN cells, 3 μM): * (one star (*) represents ≤25% change in expression)
ΔPSI (PNN) ([1]; gene SH3YL1, exon e9, PNN cells, 3 μM): * (one star (*) represents ≤25% change in expression)
ΔPSI (PNN) ([1]; gene SKA2, exon e3, PNN cells, 3 μM): * (one star (*) represents ≤25% change in expression)
ΔPSI (PNN) ([1]; gene SPATA18, exon e4, PNN cells, 3 μM): ** (two stars (**) represent change in expression in a range from <26% to ≤50% change)
ΔPSI (PNN) ([1]; gene STRN3, exon e8, PNN cells, 3 μM): **** (four stars (****) represent change in expression in a range from <75% to ≤100% change)
ΔPSI (PNN) ([1]; gene TMEM189-UBE2V1, exon e6, PNN cells, 3 μM): * (one star (*) represents ≤25% change in expression)
ΔPSI (PNN) ([1]; gene TRIM65, exon e5, PNN cells, 3 μM): *** (three stars (***) represent change in expression in a range from <51% to ≤75% change)
ΔPSI (PNN) ([1]; gene TUBE1, exon e4, PNN cells, 3 μM): * (one star (*) represents ≤25% change in expression)
ΔPSI (PNN) ([1]; gene UBE2V1, exon e3, PNN cells, 3 μM): * (one star (*) represents ≤25% change in expression)
ΔPSI (PNN) ([1]; gene VPS29, exon e2, PNN cells, 3 μM): ** (two stars (**) represent change in expression in a range from <26% to ≤50% change)
ΔPSI (PNN) ([1]; gene ZFP82, iExon inclusion position i4, PNN cell line, Compound 774 at 3 μM): ** (two stars (**) represent change in expression in a range from <26% to ≤50% change)
ΔPSI (PNN) ([1]; gene ZNF37BP, iExon inclusion position i4, PNN cell line, Compound 774 at 3 μM): **** (four stars (****) represent change in expression in a range from <75% to ≤100% change)
ΔPSI (PNN) ([1]; gene ZNF138, iExon inclusion position i3, PNN cell line, Compound 774 at 3 μM): *** (three stars (***) represent change in expression in a range from <51% to ≤75% change)
ΔPSI (PNN) ([1]; gene ZNF232, iExon inclusion position i4, PNN cell line, Compound 774 at 3 μM): * (one star (*) represents ≤25% change in expression)
ΔPSI (PNN) ([1]; gene ZNF680, exon e3, PNN cells, 3 μM): * (one star (*) represents ≤25% change in expression)
FD HDF [2, 5]: −0.35
FD HDF [2, 6]: −1.74
ΔPSI (HDF) ([2]; gene APLP2, exon e7, HDF cells, 3 μM): ** (two stars (**) represent change in expression in a range from <26% to ≤50% change)
ΔPSI (HDF) ([2]; gene AXIN1, exon e9, HDF cells, 3 μM): * (one star (*) represents ≤25% change in expression)
ΔPSI (HDF) ([2]; gene CECR7, exon e5, HDF cells, 3 μM): * (one star (*) represents ≤25% change in expression)
ΔPSI (HDF) ([2]; gene DAGLB, exon e4, HDF cells, 3 μM): * (one star (*) represents ≤25% change in expression)
ΔPSI (HDF) ([2]; gene DLGAP4, exon e8, HDF cells, 3 μM): * (one star (*) represents ≤25% change in expression)
ΔPSI (HDF) ([2]; gene ERCC1, exon e8, HDF cells, 3 μM): * (one star (*) represents ≤25% change in expression)
ΔPSI (HDF) ([2]; gene ERGIC3, exon e8, HDF cells, 3 μM): * (one star (*) represents ≤25% change in expression)
ΔPSI (HDF) [2, 5]: * (one star (*) represents ≤25% change in expression)
ΔPSI (HDF) ([2]; gene GGCT, exon e2, HDF cells, 3 μM): ** (two stars (**) represent change in expression in a range from <26% to ≤50% change)
ΔPSI (HDF) ([2]; gene HAT1, exon e3, HDF cells, 3 μM): * (one star (*) represents ≤25% change in expression)
ΔPSI (HDF) ([2]; gene HPS1, exon e5, HDF cells, 3 μM): * (one star (*) represents ≤25% change in expression)
ΔPSI (HDF) ([2]; gene INPP5K, exon e2, HDF cells, 3 μM): * (one star (*) represents ≤25% change in expression)
ΔPSI (HDF) ([2]; gene MADD, exon e21, HDF cells, 3 μM): * (one star (*) represents ≤25% change in expression)
ΔPSI (HDF) ([2]; gene PPHLN1, exon e3, HDF cells, 3 μM): ** (two stars (**) represent change in expression in a range from <26% to ≤50% change)
ΔPSI (HDF) [2, 6]: ** (two stars (**) represent change in expression in a range from <26% to ≤50% change)
ΔPSI (HDF) ([2]; gene RAP1A, exon e2, HDF cells, 3 μM): * (one star (*) represents ≤25% change in expression)
ΔPSI (HDF) ([2]; gene RNFT1, exon e3, HDF cells, 3 μM): * (one star (*) represents ≤25% change in expression)
ΔPSI (HDF) ([2]; gene RPS6KB2, exon e2, HDF cells, 3 μM): * (one star (*) represents ≤25% change in expression)
ΔPSI (HDF) ([2]; gene SH3YL1, exon e9, HDF cells, 3 μM): * (one star (*) represents ≤25% change in expression)
ΔPSI (HDF) ([2]; gene SKA2, exon e3, HDF cells, 3 μM): * (one star (*) represents ≤25% change in expression)
ΔPSI (HDF) ([2]; gene SPATA18, exon e4, HDF cells, 3 μM): * (one star (*) represents ≤25% change in expression)
ΔPSI (HDF) ([2]; gene STRN3, exon e8, HDF cells, 3 μM): *** (three stars (***) represent change in expression in a range from <51% to ≤75% change)
ΔPSI (HDF) ([2]; gene TMEM189-UBE2V1, exon e6, HDF cells, 3 μM): * (one star (*) represents ≤25% change in expression)
ΔPSI (HDF) ([2]; gene TRIM65, exon e5, HDF cells, 3 μM): ** (two stars (**) represent change in expression in a range from <26% to ≤50% change)
ΔPSI (HDF) ([2]; gene TUBE1, exon e4, HDF cells, 3 μM): * (one star (*) represents ≤25% change in expression)
ΔPSI (HDF) ([2]; gene UBE2V1, exon e3, HDF cells, 3 μM): * (one star (*) represents ≤25% change in expression)
ΔPSI (HDF) ([2]; gene VPS29, exon e2, HDF cells, 3 μM): ** (two stars (**) represent change in expression in a range from <26% to ≤50% change)
ΔPSI (HDF) ([2]; gene ZFP82, iExon inclusion position i4, HDF cell line, Compound 774 at 3 μM): ** (two stars (**) represent change in expression in a range from <26% to ≤50% change)
ΔPSI (HDF) ([2]; gene ZNF37BP, iExon inclusion position i4, HDF cell line, Compound 774 at 3 μM): *** (three stars (***) represent change in expression in a range from <51% to ≤75% change)
ΔPSI (HDF) ([2]; gene ZNF138, iExon inclusion position i3, HDF cell line, Compound 774 at 3 μM): * (one star (*) represents ≤25% change in expression)
ΔPSI (HDF) ([2]; gene ZNF232, iExon inclusion position i4, HDF cell line, Compound 774 at 3 μM): * (one star (*) represents ≤25% change in expression)
ΔPSI (HDF) ([2]; gene ZNF680, exon e3, HDF cells, 3 μM): * (one star (*) represents ≤25% change in expression)

Reference: patent US11702646B2, “Methods for modulating RNA splicing” (PTC THERAPEUTICS, INC., priority 2016, dated 2023)
